The values below come from ChEMBL document CHEMBL3507680, “University of Dundee, Gates Library screen for HepG2 cell viability”.

The data set is described as follows: Human HepG2 cell viability assay in 384 well format. It counts as toxicity, cell-based. Also noted: dose 125 nL, time 70.5 hour; concentration not given beside the values. The settings on record: HepG2 cells, read-out: Inhibition.
`Cn1nnc2c1C(COCC1CC1)CN(C(=O)CC1=CCCCC1)C2` (stereo unspecified): the cytotoxicity at 70.5 h was -2%.

For `Cc1nc(C)c2c(n1)CCN(C(=O)C1(C#N)CC1)CC2`, the cytotoxicity at 70.5 h was -1.89%.

Turning to `COc1nn(C)c2c1CCCN(C(=O)c1c[nH]cn1)C2`, the cytotoxicity at 70.5 h was -1.78%.

As to `Cn1nc(C#N)c2c1CN(C(=O)c1c[nH]cn1)CCC2`, the cytotoxicity at 70.5 h is -7.05%.

`Cc1nc2c(c(NC3CC3)n1)CCN(C(=O)C1(C#N)CC1)CC2`: the cytotoxicity at 70.5 h is -16.3%.

Consider `COCC1CN(S(=O)(=O)c2ccccc2)Cc2ncnn2C1` (stereo unspecified), for which the cytotoxicity at 70.5 h is -6.59%.

With `COCC1CN(S(=O)(=O)c2cccs2)Cc2ncnn2C1` (stereo unspecified), the cytotoxicity at 70.5 h is -12.8%.

On to `Cc1ccc(N2CCCC3(CCN(C(=O)CC(F)(F)F)C3)C2)nn1` (stereo unspecified), for which the cytotoxicity at 70.5 h is -10.2%.

As for `CCN1CCC2(CC1)CC(NC(=O)c1c[nH]cn1)c1ccccc1O2` (stereo unspecified), the cytotoxicity at 70.5 h was -6.71%.

Regarding `CCOCC1CN(S(=O)(=O)C2CC2)Cc2nn(C)cc21` (stereo unspecified), the cytotoxicity at 70.5 h was -5.98%.

`Cc1nc([C@@H]2C[C@H]3CN(Cc4ccc5c(c4)OCO5)C[C@H]3O2)no1`: the cytotoxicity at 70.5 h was -10.1%.

Consider `CN(C)CC(=O)N1Cc2nnn(C)c2C(COCC2CC2)C1` (stereo unspecified), for which the cytotoxicity at 70.5 h was -11.8%.

In the case of `Cn1nnc2c1C(COCC1CC1)CN(C(=O)C1=CCCC1)C2` (stereo unspecified), the cytotoxicity at 70.5 h is -9.91%.

Take `O=C(NC1CCc2c(ccc(=O)n2CC2CC2)C1)c1cscn1` (stereo unspecified): the cytotoxicity at 70.5 h came out at 18.1%.

`Cc1cccc(-c2nnn3c2COC(CNS(=O)(=O)C2CC2)C3)c1` (stereo unspecified): the cytotoxicity at 70.5 h was -9.41%.

As to `O=C(c1cccnc1)N1C[C@@H]2CN(CCN3CCCC3)C(=O)[C@@H]2C1`, the cytotoxicity at 70.5 h was -6.24%.

`Cc1nn(CCNS(=O)(=O)NCc2ccccc2)c(C)c1Cl`: the cytotoxicity at 70.5 h is -6.81%.

As to `CCn1ncnc1CN1CCc2[nH]cnc2C1c1ccccn1` (stereo unspecified), the cytotoxicity at 70.5 h was found to be 14.3%.

With `COCCN(C)C(C(=O)O)c1ccc2ccccc2c1` (stereo unspecified), the cytotoxicity at 70.5 h amounted to 6.21%.

With `Cc1ncc2c(c1-c1noc(-c3cscn3)n1)CCNC2`, the cytotoxicity at 70.5 h worked out at 7.48%.

Regarding `O=C1CCC2(CCNCC2)CN1Cc1nnc2ccccn12`, the cytotoxicity at 70.5 h is -5.01%.

Regarding `Cc1nc(NC(=O)N2CCCC(C(C)(C)O)C2)nn1C` (stereo unspecified), the cytotoxicity at 70.5 h is -6.42%.

Take `CCc1nc(C)c([C@H]2CN(C)C[C@@H]2C(=O)NCc2ccccc2OC)[nH]1`: the cytotoxicity at 70.5 h is -2.21%.

As to `Nc1nc2c(c(N3CCN(C(=O)c4cccs4)CC3)n1)CCCC2`, the cytotoxicity at 70.5 h is -2.27%.

With `CCNC(=O)[C@@H]1C[C@H](NC(=O)c2ccc(C)s2)CN1Cc1ccc(C)o1`, the cytotoxicity at 70.5 h worked out at 16.1%.

With `O=C(CNCc1ccccc1Cn1cccn1)Nc1cnccn1`, the cytotoxicity at 70.5 h was -9.54%.

On to `CN(C)C[C@@H]1CN(C(=O)Cc2ccc3ccccc3c2)C[C@@H]1CO`, for which the cytotoxicity at 70.5 h was -8.64%.

Turning to `Cc1ccc(-c2nc(CN3C[C@@H](C)NC[C@@H]3C)c(C)o2)s1`, the cytotoxicity at 70.5 h was -11.5%.

For the compound `CCN(CCO)C[C@@H]1CN(c2cc(C(F)(F)F)cc(C)n2)C[C@@H]1CO`, the cytotoxicity at 70.5 h is -8.43%.

As to `COc1cc(C(C)=O)ccc1OC12CCCN(CC1)C2` (stereo unspecified), the cytotoxicity at 70.5 h is 12.8%.

With `COc1ccc(CN2CCCC(N3CCCC3)C2)cc1Cn1cncn1` (stereo unspecified), the cytotoxicity at 70.5 h was 10.6%.

Consider `COc1cccc(N2CCN(C(=O)C(O)CC(C)C)CC2=O)c1` (stereo unspecified), for which the cytotoxicity at 70.5 h is -2.41%.

As to `Cn1cc(CNCC2(N3CCCCC3)Cc3ccccc3C2)cn1`, the cytotoxicity at 70.5 h is -4.33%.

On to `Cc1cccc(-c2nc(N)nc3c2CN(C(=O)C2CCCC2)C3C)c1` (stereo unspecified), for which the cytotoxicity at 70.5 h is -18.6%.

Take `Cc1cnccc1N1CCCN(C(=O)CCCn2ccnc2C)CC1`: the cytotoxicity at 70.5 h was -6.13%.

Regarding `CCc1cnc(N)nc1NCCc1ccc(OC)cc1OC`, the cytotoxicity at 70.5 h was -0.653%.

For the compound `c1ccc2c(c1)CN(c1ncnc3sc4c(c13)CCNC4)CCO2`, the cytotoxicity at 70.5 h came to 0.0341%.

As to `Clc1cc(N2CCN3CCCCC3C2)nc2[nH]ccc12` (stereo unspecified), the cytotoxicity at 70.5 h was -0.311%.

Take `CSc1ccc(C(C(=O)O)N2CCC(CO)CC2)cc1` (stereo unspecified): the cytotoxicity at 70.5 h worked out at 25.1%.

In the case of `COc1cc(CN(Cc2ccccn2)CC(C)C)cc2c1OCO2`, the cytotoxicity at 70.5 h is -0.968%.

Turning to `COc1ccccc1C(O)CNc1nccc(-c2ccc(C)nc2C)n1` (stereo unspecified), the cytotoxicity at 70.5 h was -14%.

On to `CCc1nc(CCNS(=O)(=O)c2cccc(C(=O)N(C)CC)c2)cs1`, for which the cytotoxicity at 70.5 h was -16%.

`CCn1ccnc1CN1CCN(Cc2ccc(C)o2)[C@@H]2CS(=O)(=O)C[C@@H]21`: the cytotoxicity at 70.5 h is -4.31%.

`C[C@@H]1CN(C(=O)c2cn(CCN3CCCCC3)nn2)C[C@H](C)O1`: the cytotoxicity at 70.5 h was -0.236%.

On to `CCC[C@H]1CN(c2cncc(C(=O)N3CCCCC3)n2)C[C@@H]1N(C)C`, for which the cytotoxicity at 70.5 h is -3.35%.

As for `CCc1c(C)nc(C)nc1N1C[C@@H](CN(C)CCN(C)C)[C@@H](CO)C1`, the cytotoxicity at 70.5 h was -9.98%.

As for `CCc1noc(CN(CC)Cc2cc3ccc(C)cc3[nH]c2=O)n1`, the cytotoxicity at 70.5 h is 7.76%.

In the case of `C[C@@H]1CN(c2nc3c(cc2C(N)=O)CCC3)C[C@@]1(O)C1CCC1`, the cytotoxicity at 70.5 h was -11.3%.

For `Cc1c(C(=O)N2CCC3(CCCNC3=O)C2)sc2nc[nH]c(=O)c12` (stereo unspecified), the cytotoxicity at 70.5 h was -7.46%.

With `CC(C)c1nnsc1CNC(=O)C1CCN(C(=O)C2CCC2)CC1`, the cytotoxicity at 70.5 h was -5.12%.

With `Cc1ccc(C)c2c(O)cc(CNCC(=O)N3CCCC3)nc12`, the cytotoxicity at 70.5 h was found to be 22%.

Take `CCCc1cncnc1N1CCC2(CCC(=O)N(CCCO)C2)CC1`: the cytotoxicity at 70.5 h is -10.1%.

In the case of `Cc1nccn1CCCN1CCC2(CCC(=O)N(CC3CC3)C2)CC1`, the cytotoxicity at 70.5 h was -7.09%.

`COCC(=O)N1CCC2(CCCN(Cc3ccc(Cl)cc3)CC2)CC1`: the cytotoxicity at 70.5 h stood at 44.6%.

On to `Oc1cccc(CN2C[C@H]3CC[C@@H]2CN(Cc2ccncc2)C3)c1`, for which the cytotoxicity at 70.5 h was -12.3%.

For `CCCn1ncc(CN(Cc2cccnc2)Cc2ccsc2)c1C`, the cytotoxicity at 70.5 h was 16.8%.

For `CO[C@H]1C[C@@H](O)C12CCN(CCCOc1ccc(C(N)=O)cc1)CC2`, the cytotoxicity at 70.5 h is -2.22%.

Turning to `COc1ccc2c(c1)OCC(CNC(=O)c1cnc(O)cn1)C2` (stereo unspecified), the cytotoxicity at 70.5 h was -3.99%.

For the compound `Cc1ccsc1[C@@H]1CCN(C(=O)CCCn2cncn2)C[C@H]1O`, the cytotoxicity at 70.5 h was -7.81%.

As to `CNc1nc(N2CCN(C)C(CCO)C2)nc2c1CCC2` (stereo unspecified), the cytotoxicity at 70.5 h worked out at 2.44%.

On to `COCC(=O)N1CCC2(CC1)c1ccccc1[C@@H](N1CCSCC1)[C@@H]2O`, for which the cytotoxicity at 70.5 h amounted to 4.64%.

Consider `Cc1cnc(C)c(Oc2ccc(Cl)c(CN3CCCC3)c2Cl)n1`, for which the cytotoxicity at 70.5 h was 18.5%.

For the compound `O=C(c1ccc(-n2cnnc2)nc1)N1CCCC(O)(CO)CC1` (stereo unspecified), the cytotoxicity at 70.5 h is -22.7%.

For the compound `CC(C)c1nnsc1CN1CCc2[nH]nc(-c3ccc(F)c(F)c3)c2C1`, the cytotoxicity at 70.5 h was -11.6%.

Consider `Cc1cc(N2CCN(Cc3ccsc3)C(CCO)C2)nc(N)n1` (stereo unspecified), for which the cytotoxicity at 70.5 h is -6.22%.

On to `CN(Cc1ccncc1)CC1CCCN(CCc2ccc(Cl)cc2)C1` (stereo unspecified), for which the cytotoxicity at 70.5 h is -0.313%.

As for `CN(C)C(=O)c1ccc(-c2cccc3c2CCNC3)o1`, the cytotoxicity at 70.5 h was -5.11%.

On to `CCc1nnsc1C(=O)NCCC1CCCN(C(C)C)C1` (stereo unspecified), for which the cytotoxicity at 70.5 h was 24.8%.

For `Cc1cnn(C2(C(=O)O)CCN(c3ccnc4cc(Cl)ccc34)CC2)c1`, the cytotoxicity at 70.5 h was -5.05%.

For `Cc1ccc2nc(C3CCCN3Cc3csc(C)n3)[nH]c2c1` (stereo unspecified), the cytotoxicity at 70.5 h was -6.25%.

For `COc1ccc(Cn2cc(C(=O)N(C)Cc3ccon3)nn2)cc1`, the cytotoxicity at 70.5 h is -3.92%.

With `Cc1ccc2nc(C(=O)N3C[C@@H](C(=O)O)[C@H](c4ccccc4)C3)cn2c1`, the cytotoxicity at 70.5 h is -8.12%.

As for `COCCC(=O)N1CCCCC1c1ccc(F)cc1` (stereo unspecified), the cytotoxicity at 70.5 h was determined as 5.22%.

`CCc1nc(N2CCC3(CC2)CC(=O)N(Cc2ccc(Cl)cc2)C3)no1`: the cytotoxicity at 70.5 h was -10.7%.

On to `Cc1nc2c(c(NCCc3nccs3)n1)CCN(CC1CC1)CC2`, for which the cytotoxicity at 70.5 h was -14.3%.

For `O=C(NCc1nc[nH]n1)c1cc(COc2cccc(F)c2)[nH]n1`, the cytotoxicity at 70.5 h was found to be 11.1%.

In the case of `Cn1ccnc1C(=O)N1CCCC(Cn2cc(CO)nn2)C1` (stereo unspecified), the cytotoxicity at 70.5 h was -1.24%.

As to `CN(C)c1cnn(CC(=O)N2CCN(Cc3cccs3)CC2)c(=O)c1`, the cytotoxicity at 70.5 h is -8.39%.

`COCc1cc(N2CCOC(c3ccc(Cl)cc3)C2)ncn1` (stereo unspecified): the cytotoxicity at 70.5 h was -10.8%.

Take `CC(C)NC(=O)CNC(C)COc1ccccc1` (stereo unspecified): the cytotoxicity at 70.5 h is -12.1%.

Regarding `c1ccc(CCc2noc(CN3CCC(N4CCSCC4)CC3)n2)cc1`, the cytotoxicity at 70.5 h was -2.58%.

Consider `CCC(CNC(=O)c1cc(CC(C)C)nn1C)N(C)CC` (stereo unspecified), for which the cytotoxicity at 70.5 h was -8.14%.

For `CN1CCc2c(CNC(=O)c3nccn3C)cncc2C1`, the cytotoxicity at 70.5 h is -0.526%.

As for `O=C(c1ccc2[nH]ccc2c1)N1CC[C@@H]2CN(CC3CC3)CCO[C@@H]2C1`, the cytotoxicity at 70.5 h is -7.61%.

With `O=C(NC1CC1)[C@@H]1CCO[C@@H]2CCN(CC3CCC3)C[C@@H]21`, the cytotoxicity at 70.5 h was -11.4%.

`COCCN1CCOCC2(CCN(c3cnccn3)CC2)C1`: the cytotoxicity at 70.5 h was found to be 8.46%.

`Cc1cccc(CN2CCC3(CCC(CC(=O)N(C)C)CC3)CC2)n1`: the cytotoxicity at 70.5 h was -8.22%.

`CC(C)N1CCOCC2(CCN(c3cnccn3)CC2)C1`: the cytotoxicity at 70.5 h was -11.1%.

Take `Cc1ccc(CN2CCC3(CCCN3S(C)(=O)=O)CC2)s1`: the cytotoxicity at 70.5 h is -11.8%.

As to `Cc1ccc(CN2CCCC3(CCCC(=O)N3C)C2)s1` (stereo unspecified), the cytotoxicity at 70.5 h was -9.33%.

Consider `O=C(c1ccccn1)N1CCC2(CCCN(c3nncs3)C2)C1` (stereo unspecified), for which the cytotoxicity at 70.5 h is -9.42%.

Turning to `COCCN1CCC2(CC1)CC(N1CCOCC1)c1cc(C)ccc12` (stereo unspecified), the cytotoxicity at 70.5 h is 4.82%.

Take `CN(Cc1ccccn1)C1CCC[C@@H]2CN(CC3CC3)C[C@H]12` (stereo partly specified): the cytotoxicity at 70.5 h turned out to be 17.7%.

`C[C@@H]1CN(C2CCOC2)C[C@]12CCN(Cc1cccnc1)C2=O` (stereo partly specified): the cytotoxicity at 70.5 h was -10.6%.

`CC(C)N1[C@H](Cn2cncn2)C[C@@H]2CN(Cc3nccn3C)CC[C@@H]21`: the cytotoxicity at 70.5 h is -6.18%.

For the compound `CN1CCN(Cc2cccnc2)C(=O)C12CCN(CC1CCOC1)CC2` (stereo unspecified), the cytotoxicity at 70.5 h was -6.06%.
